Source: ChEMBL document CHEMBL3351912, “Influence of azide incorporation on binding affinity by small papain inhibitors” (Bioorg Med Chem, 2014)

Target: T1, Papain (Carica papaya, UniProt P00784)
T1 sequence (P00784 whole entry): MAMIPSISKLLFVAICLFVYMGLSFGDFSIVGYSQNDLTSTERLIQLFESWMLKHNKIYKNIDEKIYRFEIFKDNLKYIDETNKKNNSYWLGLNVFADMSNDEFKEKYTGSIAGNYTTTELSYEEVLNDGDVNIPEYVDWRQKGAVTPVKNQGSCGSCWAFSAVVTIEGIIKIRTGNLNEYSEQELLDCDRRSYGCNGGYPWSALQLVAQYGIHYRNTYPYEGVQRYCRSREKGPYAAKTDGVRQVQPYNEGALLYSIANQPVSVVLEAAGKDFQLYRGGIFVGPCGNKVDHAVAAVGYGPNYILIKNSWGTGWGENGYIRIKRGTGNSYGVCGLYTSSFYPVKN
Assay: Inhibition of papaya papain using Z-Phe-Arg-pNA substrate by spectrophotometry

Row | IC50 | SMILES
1 | 51200 nM | N#CCNC(=O)[C@H](Cc1ccc(O)cc1)NC(=O)c1ccc(-c2ccc(CN=[N+]=[N-])cc2)cc1
2 | 2270 nM | CC(C)C[C@H](NC(=O)c1ccc(CN=[N+]=[N-])cc1)C(=O)NCC#N
3 | 2250 nM | CC(C)C[C@H](NC(=O)CN=[N+]=[N-])C(=O)N[C@@H](Cc1ccccc1)C(=O)NCC#N
4 | 5980 nM | N#CCNC(=O)[C@H](Cc1ccccc1)NC(=O)c1ccc(Cn2nnc3c2-c2ccccc2CN(C(=O)CCCC(=O)NCCOCCOCCN)c2ccccc2-3)cc1
5 | 1580 nM | CC(C)C[C@H](NC(=O)c1ccc(-c2ccc(CN=[N+]=[N-])cc2)cc1)C(=O)NCC#N
6 | 270 nM | N#CCNC(=O)[C@H](Cc1ccccc1)NC(=O)c1ccc(CN=[N+]=[N-])cc1
7 | 710 nM | N#CCNC(=O)[C@H](CCc1ccccc1)NC(=O)c1ccc(CN=[N+]=[N-])cc1
8 | 3970 nM | N#CCNC(=O)[C@H](Cc1ccccc1)NC(=O)[C@H](Cc1ccccc1)NC(=O)CN=[N+]=[N-]
9 | 980 nM | N#CCNC(=O)[C@H](CCc1ccc(O)cc1)NC(=O)c1ccc(CN=[N+]=[N-])cc1
10 | 350 nM | N#CCNC(=O)[C@H](Cc1ccccc1)NC(=O)c1ccc(Cn2nnc3c2CC[C@H]2[C@@H](CC3)[C@H]2COC(=O)NCCOCCOCCN)cc1
11 | 360 nM | N#CCNC(=O)[C@H](Cc1ccccc1)NC(=O)c1ccccc1
12 | 13900 nM | N#CCNC(=O)[C@H](Cc1ccccc1)NC(=O)c1ccc(-c2ccc(CN=[N+]=[N-])cc2)cc1
13 | 2710 nM | CC(C)C[C@H](NC(=O)CN=[N+]=[N-])C(=O)N[C@@H](CC(C)C)C(=O)NCC#N
14 | 280 nM | N#CCNC(=O)[C@H](Cc1ccc(O)cc1)NC(=O)c1ccc(CN=[N+]=[N-])cc1
15 | 7100 nM | CCCC[C@H](NC(=O)c1ccc(CN=[N+]=[N-])cc1)C(=O)NCC#N
16 | 220 nM | N#CCNC(=O)[C@H](Cc1ccccc1)NC(=O)c1ccc(-c2ccccc2)cc1
